Assays:
NBD1/3D = test: Aggregation analysis using differential static light scattering (DSLS), NBD1 thermal stability; type: binding, Human; details: ΔTagg versus DMSO control; compound at 100 μM
In short: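 Thermal stabilisation reported as ΔTagg, i.e. aggregation temperature relative to averaged DMSO wells. Tagg came from the inflection of differential static light scattering imaged 25–70 °C while NBD1 (0.2 mg/ml, Tris pH 7.6 buffer containing ATP, MgCl2, DTT, glycerol) was ramped 1 °C/min.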

CFTR = biological target: T1, CFTR (Homo sapiens, UniProt P13569, DEL508-508); test: TECC24 recording of CFTR-mediated transepithelial chloride transport in ΔF508 homozygous CF-HBE cells; type: cell-based; details: 10 μM test agent, 48 hours incubation, AUC of forskolin-stimulated IEQ divided by vehicle AUC, primary CF-HBE cells
T1 construct: Primary human bronchial epithelial cells from a ΔF508 homozygous CF donor; host or cells: primary human bronchial epithelial cells (CF-HBE), ΔF508 homozygous donor
Procedure: The effects of a test agent on CFTR-mediated transepithelial chloride transport was measured using TECC24 recording analysis. Test agents were solubilized in DMSO. Solubilized test agents were mixed with incubation medium containing DMEM/F12, Ultroser G (2%; Crescent Chemical, catalog #67042), Hyclone Fetal Clone II (2%; GE Healthcare, catalog #SH30066.02), bovine brain extract (0.25%; Lonza, catalog #CC-4098), insulin (2.5 μg/mL), IL-13 (10 ng/mL), hydrocortisone (20 nM), transferrin (2.5 μg/mL), triiodothyronine (500 nM), ethanolamine (250 nM), epinephrine (1.5 μM), phosphoethanolamine (250 nM), and retinoic acid (10 nM). Primary human bronchial epithelial cells from a ΔF508 homozygous CF donor (CF-HBE cells; from University of North Carolina Cystic Fibrosis Tissue Procurement Center), grown on Transwell HTS 24-well cell culture inserts (Costar, catalog #3378), were exposed to test agents or controls dissolved in incubation medium. The CF-HBE cells were cultured at 36.5° C. for 48 hours before TECC24 recordings were performed in the presence or absence of test agent, a positive control or vehicle (DMSO).
Following incubation, the transwell cell culture inserts containing the test agent or control-treated CF-HBE cells were loaded onto a TECC24 apparatus (TECC v7 or MTECC v2; EP Design) to record the transepithelial voltage (VT) and resistance (TEER) using 4 AgCl electrodes per well configured in current-clamp mode. The apical and basolateral bath solutions both contained (in mM) 140 NaCl, 5 KCl, 2 CaCl2, 1 MgCl2, 10 Hepes, and 10 glucose (adjusted to pH 7.4 with NaOH). To inhibit basal Na+ absorption, the ENaC inhibitor benzamil (10 μM) was added to the bath. Then, the adenylate cyclase activator, forskolin (10 μM), was added to the bath to activate CFTR. The forskolin-stimulated Cl— transport was halted by addition of CFTR inhibitor-172 (20 μM) to the bath at the end of the experiment to confirm specificity. VT and TEER recordings were digitally acquired at routine intervals using TECC or MTECC software (EP Design). VT and TEER were transformed into equivalent transpeithelial Cl— current (IEQ), and the Area Under the Curve (AUC) of the IEQ timecourse between forskolin and CFTR inhibitor-172 addition is generated using Excel (Microsoft). Efficacy is expressed as the ratio of the test agent AUC divided by vehicle AUC. EC50s based on AUC are generated using the non-linear regression log(agonist) vs. response function in Prism software (Graphpad) with HillSlope fixed=1.
If a test agent increased the AUC of the forskolin-stimulated IEQ relative to vehicle in CF-HBE cells, and this increase was inhibited by CFTR inhibitor-172, then the test agent was considered a CFTR corrector.

T1 sequence (P13569 with tags, fused parts or gaps DEL508-508): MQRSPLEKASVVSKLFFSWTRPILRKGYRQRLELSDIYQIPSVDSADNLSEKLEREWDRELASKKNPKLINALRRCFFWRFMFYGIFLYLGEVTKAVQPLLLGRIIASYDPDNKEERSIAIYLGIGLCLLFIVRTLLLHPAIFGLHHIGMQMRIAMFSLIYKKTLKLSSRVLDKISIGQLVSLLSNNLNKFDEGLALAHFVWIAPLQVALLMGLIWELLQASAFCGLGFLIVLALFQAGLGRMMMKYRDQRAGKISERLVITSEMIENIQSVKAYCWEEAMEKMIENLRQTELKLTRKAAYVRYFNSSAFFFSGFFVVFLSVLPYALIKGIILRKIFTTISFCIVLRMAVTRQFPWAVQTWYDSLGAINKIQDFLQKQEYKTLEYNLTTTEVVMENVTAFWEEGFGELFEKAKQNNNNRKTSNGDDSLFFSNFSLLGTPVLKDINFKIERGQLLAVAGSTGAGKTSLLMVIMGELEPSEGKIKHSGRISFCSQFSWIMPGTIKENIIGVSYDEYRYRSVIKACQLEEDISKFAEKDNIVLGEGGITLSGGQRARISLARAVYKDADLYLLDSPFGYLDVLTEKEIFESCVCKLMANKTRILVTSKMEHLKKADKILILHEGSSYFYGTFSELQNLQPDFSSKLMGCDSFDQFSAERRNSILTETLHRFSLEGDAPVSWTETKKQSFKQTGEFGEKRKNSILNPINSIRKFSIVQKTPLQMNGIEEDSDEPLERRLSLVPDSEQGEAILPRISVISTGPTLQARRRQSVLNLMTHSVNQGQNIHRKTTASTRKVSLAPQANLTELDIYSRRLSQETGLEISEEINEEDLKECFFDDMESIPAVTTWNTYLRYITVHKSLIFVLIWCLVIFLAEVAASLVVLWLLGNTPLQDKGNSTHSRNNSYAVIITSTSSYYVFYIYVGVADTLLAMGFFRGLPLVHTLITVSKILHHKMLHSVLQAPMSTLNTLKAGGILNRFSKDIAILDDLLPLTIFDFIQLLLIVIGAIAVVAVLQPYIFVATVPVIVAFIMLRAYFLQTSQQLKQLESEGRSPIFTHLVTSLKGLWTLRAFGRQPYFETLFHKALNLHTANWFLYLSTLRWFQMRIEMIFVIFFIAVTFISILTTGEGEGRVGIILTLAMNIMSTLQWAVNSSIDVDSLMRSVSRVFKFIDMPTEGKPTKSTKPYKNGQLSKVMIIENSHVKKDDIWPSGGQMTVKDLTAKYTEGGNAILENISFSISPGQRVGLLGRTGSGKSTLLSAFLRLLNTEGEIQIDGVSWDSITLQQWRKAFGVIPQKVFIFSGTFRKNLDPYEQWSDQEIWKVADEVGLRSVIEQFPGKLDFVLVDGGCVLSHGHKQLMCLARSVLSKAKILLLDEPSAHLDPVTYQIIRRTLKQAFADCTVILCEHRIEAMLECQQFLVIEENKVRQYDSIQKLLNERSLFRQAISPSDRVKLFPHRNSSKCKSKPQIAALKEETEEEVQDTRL

TECC24 @ 10 μM over DMSO (AUC fold over DMSO) (CFTR) | Structure (SMILES) | DSLS NBD1/3D Human Stability delta-T (° C.) @ 100 (μM) (NBD1/3D)
A (“A” refers to AUC @10 uM >= 12) | C[C@H]1C[C@](c2cccc(CCC(=O)O)c2)(c2c[nH]c(-c3cc(Oc4c(F)cc5[nH]ccc5c4F)ccc3F)n2)CCO1 (racemic) [Example 155, 3-(3-((2S)-4-(2-(5-((4,6-difluoro-1H-indol-5-yl)oxy)-2-fluorophenyl)-1H-imidazol-5-yl)-2-methyltetrahydro-2H-pyran-4-yl)phenyl)propanoic acid] | A (A: T ≥ 10° C.)
C (“C” refers to AUC @ 10 uM <= 4) | Cc1c(Oc2ccc(F)c(-c3ncc([C@]4(c5cccc(CCC(=O)O)c5)C[C@H](O)CO4)[nH]3)c2)c(F)cc2[nH]ccc12 (racemic) [Example 274, rac-3-(3-((2r,4s)-2-(2-(2-Fluoro-5-((6-fluoro-4-methyl-1H-indol-5-yl)oxy)phenyl)-1H-imidazol-5-yl)-4-hydroxytetrahydrofuran-2-yl)phenyl)propanoic acid] | A (A: T ≥ 10° C.)
A (“A” refers to AUC @10 uM >= 12) | CC(c1ccn(-c2cccc(Oc3c(F)cc4[nH]ccc4c3S(C)(=O)=O)c2)n1)c1cccc(CCC(=O)O)c1F (single isomer, unassigned) [Example 23B, 3-(2-fluoro-3-(1-(1-(3-((6-fluoro-4-(methylsulfonyl)-1H-indol-5-yl)oxy)phenyl)-1H-pyrazol-3-yl)ethyl)phenyl)propanoic acid] | A (A: T ≥ 10° C.)
A (“A” refers to AUC @10 uM >= 12) | CC(c1cccc(CCC(=O)O)c1F)n1ccc(-c2cc(Oc3c(F)cc4[nH]ccc4c3S(C)(=O)=O)ccc2F)n1 (single isomer, unassigned) [Example 41B, 3-(2-fluoro-3-(1-(3-(2-fluoro-5-((6-fluoro-4-(methylsulfonyl)-1H-indol-5-yl)oxy)phenyl)-1H-pyrazol-1-yl)ethyl)phenyl)propanoic acid] | A (A: T ≥ 10° C.)
A (“A” refers to AUC @10 uM >= 12) | [2H]C([2H])([2H])C(C#N)(c1cccc(CCC(=O)O)c1)c1cnc(-c2cc(Oc3c(F)c(F)c4[nH]ccc4c3F)ccc2F)[nH]1 (single isomer, unassigned) [Example 64B, 3-(3-(1-Cyano-1-(2-(2-fluoro-5-((4,6,7-trifluoro-1H-indol-5-yl)oxy)phenyl)-1H-imidazol-5-yl)ethyl-2,2,2-d3)phenyl)propanoic acid] | B (B: 5-10° C.)
C (“C” refers to AUC @ 10 uM <= 4) | [2H]c1c[nH]c2c(F)c(F)c(Oc3ccc(F)c(-c4nc(C(C#N)(c5cc(F)cc(CCC(=O)O)c5)C([2H])([2H])[2H])c[nH]4)c3)c(F)c12 (single isomer, unassigned) [Example 67B, 3-(3-(1-cyano-1-(2-(2-fluoro-5-((4,6,7-trifluoro-1H-indol-5-yl-3-d)oxy)phenyl)-1H-imidazol-4-yl)ethyl-2,2,2-d3)-5-fluorophenyl)propanoic acid] | B (B: 5-10° C.)
A (“A” refers to AUC @10 uM >= 12) | CC(c1cnc(-c2cc(Oc3c(F)cc4[nH]ccc4c3CC(F)(F)F)ccc2F)[nH]1)c1cccc(CCC(=O)O)c1F (single isomer, unassigned) [Example 128B, 3-(2-fluoro-3-(1-(2-(2-fluoro-5-((6-fluoro-4-(2,2,2-trifluoroethyl)-1H-indol-5-yl)oxy)phenyl)-1H-imidazol-5-yl)ethyl)phenyl)propanoic acid] | A (A: T ≥ 10° C.)
A (“A” refers to AUC @10 uM >= 12) | CC(c1c[nH]c(-c2cc(Oc3c(F)cc4[nH]ccc4c3CC(F)F)ccc2F)n1)c1cccc(CCC(=O)O)c1F (single isomer, unassigned) [Example 129A, 3-(3-(1-(2-(5-((4-(2,2-difluoroethyl)-6-fluoro-1H-indol-5-yl)oxy)-2-fluorophenyl)-1H-imidazol-4-yl)ethyl)-2-fluorophenyl)propanoic acid] | A (A: T ≥ 10° C.)
A (“A” refers to AUC @10 uM >= 12) | CC(C)OCCOCCC(c1cnc(-c2cc(Oc3c(F)cc4[nH]ccc4c3F)ccc2F)[nH]1)c1cccc(CCC(=O)O)c1F (single isomer, unassigned) [Example 130B, 3-(3-(1-(2-(5-((4,6-difluoro-1H-indol-5-yl)oxy)-2-fluorophenyl)-1H-imidazol-5-yl)-3-(2-isopropoxyethoxy)propyl)-2-fluorophenyl)propanoic acid] | A (A: T ≥ 10° C.)
A (“A” refers to AUC @10 uM >= 12) | CC(c1cnc(-c2cc(Oc3c(F)cc4[nH]ccc4c3F)ccc2F)[nH]1)c1cccc(CC(=O)O)c1F (single isomer, unassigned) [Example 131A, 2-(3-(1-(2-(5-((4,6-difluoro-1H-indol-5-yl)oxy)-2-fluorophenyl)-1H-imidazol-5-yl)ethyl)-2-fluorophenyl)acetic acid] | A (A: T ≥ 10° C.)
A (“A” refers to AUC @10 uM >= 12) | CC(c1cnc(-c2cc(Oc3c(F)cc4[nH]ccc4c3F)ccc2F)[nH]1)c1cc(F)cc(CCC(=O)O)c1F (single isomer, unassigned) [Example 132B, 3-(3-(1-(2-(5-((4,6-difluoro-1H-indol-5-yl)oxy)-2-fluorophenyl)-1H-imidazol-5-yl)ethyl)-2,5-difluorophenyl)propanoic acid] | A (A: T ≥ 10° C.)
 | O=P(O)(O)OCCCc1cccc(Cc2cnc(-c3cc(Oc4c(F)cc5[nH]ccc5c4F)ccc3F)[nH]2)c1F [Example 269, 3-(3-((2-(5-((4,6-Difluoro-1H-indol-5-yl)oxy)-2-fluorophenyl)-1H-imidazol-5-yl)methyl)-2-fluorophenyl)propyl dihydrogen phosphate] | C (C: ≤5° C.)
 | O=C(O)CCc1cccc(Cc2cnc(-c3cccc(Oc4c(F)cc5[nH]ccc5c4-c4ccn[nH]4)c3)[nH]2)c1 [Example 271, 3-(3-((2-(3-((6-Fluoro-4-(1H-pyrazol-5-yl)-1H-indol-5-yl)oxy)phenyl)-1H-imidazol-4-yl)methyl)phenyl)propanoic acid] | B (B: 5-10° C.)
 | COc1cc(F)c(-c2ncc(C(C)(O)c3cccc(CCC(=O)O)c3)[nH]2)cc1Oc1c(F)cc2[nH]ccc2c1C (centres unmarked) [Example 281, 3-(3-(1-(2-(2-fluoro-5-((6-fluoro-4-methyl-1H-indol-5-yl)oxy)-4-methoxyphenyl)-1H-imidazol-5-yl)-1-hydroxyethyl)phenyl) propanoic acid] | B (B: 5-10° C.)

Structure (SMILES) | TECC24 @ 10 μM over DMSO (AUC fold over DMSO) (CFTR) | DSLS NBD1/3D Human Stability delta-T (° C.) @ 100 (μM) (NBD1/3D)
[2H]C([2H])([2H])C(C#N)(c1cccc(CCC(=O)O)c1)c1cnc(-c2cc(Oc3c(F)c(F)c4[nH]ccc4c3F)ccc2F)[nH]1 (single isomer, unassigned) [Example 64A, 3-(3-(1-Cyano-1-(2-(2-fluoro-5-((4,6,7-trifluoro-1H-indol-5-yl)oxy)phenyl)-1H-imidazol-5-yl)ethyl-2,2,2-d3)phenyl)propanoic acid] | B (“B” refers to AUC @10 uM between 4-12) | B (B: 5-10° C.)
CC(c1c[nH]c(-c2cc(Oc3c(F)cc4[nH]ccc4c3S(C)(=O)=O)ccc2F)n1)c1cccc(CC(=O)O)c1F (single isomer, unassigned) [Example 84, 2-(2-fluoro-3-(1-(2-(2-fluoro-5-((6-fluoro-4-(methylsulfonyl)-1H-indol-5-yl)oxy)phenyl)-1H-imidazol-4-yl)ethyl)phenyl)acetic acid] | B (“B” refers to AUC @10 uM between 4-12) | A (A: T ≥ 10° C.)
